# Publication PMC11308363, “Bioinformatic, Enzymatic, and Structural Characterization of Trichuris suis Hexosaminidase HEX-2” (Biochemistry, 2024)
# Legend:
# [1] = molecular target: T1, T. suis HEX-2 (Trichuris suis, UniProt A0A085NCI8); experiment: pNP-β-GalNAc hydrolysis assay with purified enzyme, Ki fitted in Prism; assay type: biochemical
# T1 construct: gene M514_07548; recombinant C-terminally His-tagged, secreted from Pichia; residues 85–620 (long) or 135–620 (short) of the predicted protein
# [2] = substrate: CC(=O)N[C@H]1[C@H](Oc2ccc([N+](=O)[O-])cc2)O[C@H](CO)[C@H](O)[C@@H]1O; experiment: Michaelis–Menten kinetics, absorbance assay with purified enzyme (apparent Km); assay type: biochemical, Trichuris suis
Molecule,Ki [1] [nM],Km [2] [µM]
GalNAc-isofagomine,600,–
"T. suis HEX-2 (Trichuris suis) (protein, recombinant C-terminally His-tagged, secreted from Pichia; residues 85–620 (long) or 135–620 (short) of the predicted protein) SNVFIPKRRIVHLDLKGAAPKPQHFRAFFEYFVRIGATGILIEWEDMFPYEGRLSDLRNGDAYSADDVRMILSTADQLRLEVIPLVQTIGHLEWLLKTHKFYSFRENPRNPQSVCVSNAEAVDLVLHLVDQVMAFHKDYGQFVHIGADEVYQYGECSRCVARMNKENLRREDLLLRHIVNVSKHVKTKYGKNVLMWHDMIANIDASLAEKYDLKNLVEPVLWNYAEDLEAFLPMGIWETFSAMVPYMWGSSAFKGADSPTRYHSNVKHYLENHISWIKQMSTASEKFREFRGLIFTGWQRYDHFAVLCEFLPIGIPSLTVNMLTIRNGRFDASVNDQAISIMQCVTGSDVKGDLYGCRFPGSDIYHHVQLLHEKKGEIEKLLLQQSVQGWLSNIAIDYNMSSPWYMNLIVPDLMTYKNQMIELSLNIRQAMLEMFYENAVDEFLFTYVDPVINHLQRLLDRATAIQRRDEFPVRPFPIKRTIDTTR",–,900
